Measured values published in patent publication US10561658B2, “Thieno- and pyrrolopyrimidine analogues as anticancer agents and methods of use thereof” (UNIVERSITY OF MARYLAND, BALTIMORE COUNTY, priority 2015, dated 2020).

How the values were obtained:
[1] = system: human lymphocytic CEM cells; experiment: Cell proliferation assay, CEM; assay type: cell-based; settings: CCRF-CEM, 72 h proliferation, Coulter counter
Experimental: Cell proliferation assays for several of the compounds were performed on L1210, a mouse lymphocytic leukemia cell line; CCRF-CEM [39] an acute lymphoblastic leukemia cell line; and HeLa, a human cancer cell line derived from a human cervical adenocarcinoma. Murine Leukemia L1210, human lymphocytic CEM and human cervix carcinoma HeLa cells were obtained from the American Type Culture Collection (ATCC) (Rockville, Md.). All assays were performed in 96-well microtiter plates. To each well were added (5-7.5)×10^4 tumor cells and a given amount of the test compound. The cells were allowed to proliferate for 48 h (murine leukemia L1210 cells) or 72 h (human lymphocytic CEM and human cervix carcinoma HeLa cells) at 37° C. in a humidified CO2-controlled atmosphere. At the end of the incubation period, the cells were counted in a Coulter counter. The IC50 (50% inhibitory concentration) was defined as the concentration of the compound that inhibited cell proliferation by 50%. […] Presence of C7 iodine on the 2,4-dichloro pyrrolo[3,2-d] (compound 20) increases the anticancer activity by a factor of 5 when compared to compound 19. […] This alludes to a) importance of C7-I towards activity against cancer cell lines for the 2,4-O-benzylated analogues (15 and 16).

melanoma tumor = experiment: In vivo activity screen, intra-tumor injection; design: species or system mice; settings: intra-tumor injection 0.01 mg/100 mm^3 tumor, 5 days on/2 days off, 21 days
Description: The asterisk denotes […] when compared to the vehicle only (n=6-10 mice). Melanoma is viewed as resistant to nucleoside analogues, since traditional FDA-approved nucleosides have minimal effects on growth inhibition (100-90% growth percent) and apoptosis (5-10% cell death).

PRKD2 (PKD2) = PRKD2 (PKD2) (Homo sapiens, UniProt Q9BZL6); experiment: Select Screen kinase profiling; assay type: biochemical
Description: The thieno[3,2-d]pyrimidine scaffold has been used extensively in the design of kinase inhibitors.

[2] = In vivo systemic (IP) toxicity, body weight
Description: When dosing was completed, the mice were monitored for 14 days to determine any toxicity. In mice the best indicator of toxicity is weight loss.

PRKD2 (PKD2), sequence (Q9BZL6 whole entry): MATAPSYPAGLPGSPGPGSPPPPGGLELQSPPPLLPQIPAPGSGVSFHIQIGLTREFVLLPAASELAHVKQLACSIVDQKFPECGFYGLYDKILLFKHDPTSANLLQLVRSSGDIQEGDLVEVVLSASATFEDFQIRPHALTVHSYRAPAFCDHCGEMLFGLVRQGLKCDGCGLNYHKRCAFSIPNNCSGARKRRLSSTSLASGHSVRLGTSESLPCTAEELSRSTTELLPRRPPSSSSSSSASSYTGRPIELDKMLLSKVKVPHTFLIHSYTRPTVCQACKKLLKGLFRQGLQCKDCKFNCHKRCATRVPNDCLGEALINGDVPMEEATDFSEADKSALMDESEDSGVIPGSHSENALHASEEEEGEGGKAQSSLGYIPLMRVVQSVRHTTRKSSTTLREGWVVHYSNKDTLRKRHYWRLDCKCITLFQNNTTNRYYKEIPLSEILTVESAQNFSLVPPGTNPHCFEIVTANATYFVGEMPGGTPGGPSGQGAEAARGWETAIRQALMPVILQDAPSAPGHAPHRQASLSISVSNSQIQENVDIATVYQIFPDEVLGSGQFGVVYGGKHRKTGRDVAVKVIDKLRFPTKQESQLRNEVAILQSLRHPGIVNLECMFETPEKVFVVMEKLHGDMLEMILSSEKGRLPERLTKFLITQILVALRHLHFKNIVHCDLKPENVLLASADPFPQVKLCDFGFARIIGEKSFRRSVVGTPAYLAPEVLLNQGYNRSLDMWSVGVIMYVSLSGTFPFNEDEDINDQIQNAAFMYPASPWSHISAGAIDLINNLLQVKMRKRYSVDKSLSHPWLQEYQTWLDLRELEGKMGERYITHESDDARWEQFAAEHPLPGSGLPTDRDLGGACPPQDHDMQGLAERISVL

SMILES	IC50 [1] [µM]	anti-cancer activity (tumor responsiveness) in vivo (melanoma tumor)	inhibition at 5 µM (PRKD2 (PKD2)) [%]	body weight ([2]; 20 mg/kg IP, 5 days)	toxicity when administered systemically ([2]; daily IP doses 5 consecutive days, monitored 14 days)
Clc1nc(Cl)c2[nH]ccc2n1 [Compound 19, 2,4-Dichloropyrrolo[3,2-d]pyrimidine]	25	–	–	–	–
Clc1nc(Cl)c2sccc2n1 [Compound 1, 2,4-Dichlorothieno[3,2-d]pyrimidine]	–	comparable to the current standard of care, temozolomide	< 40	maintaining their weight	non-toxic
